Assay results published in PubChem BioAssay (NCI).
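Exposure lasted 48 hours, with cells grown in 96-well plates and compounds tested at five concentrations. The concentration for 50% growth inhibition is given as GI50. The concentration for full growth arrest is given as TGI.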

Experiments:
Test in all cases: growth of human tumour cells (NCI), 48 h
SK-OV-3 ovarian = test system: SK-OV-3 ovarian
MCF7 breast = test system: MCF7 breast
SF-539 CNS = test system: SF-539 CNS
PC-3 prostate = test system: PC-3 prostate
NCI-H226 lung = test system: NCI-H226 lung
NCI-H23 lung = test system: NCI-H23 lung
BT-549 breast = test system: BT-549 breast
HT29 colon = test system: HT29 colon
HCT-116 colon = test system: HCT-116 colon
CCRF-CEM leukemia = test system: CCRF-CEM leukemia
M14 melanoma = test system: M14 melanoma
RXF 393 renal = test system: RXF 393 renal
IGROV1 ovarian = test system: IGROV1 ovarian
MOLT-4 leukemia = test system: MOLT-4 leukemia
786-0 renal = test system: 786-0 renal
SK-MEL-5 melanoma = test system: SK-MEL-5 melanoma
RPMI-8226 leukemia = test system: RPMI-8226 leukemia
MDA-MB-468 breast = test system: MDA-MB-468 breast
HOP-92 NSCLC = test system: HOP-92 NSCLC
SN12C renal = test system: SN12C renal
K-562 leukemia = test system: K-562 leukemia
EKVX NSCLC = test system: EKVX NSCLC
MDA-MB-231 breast = test system: MDA-MB-231 breast
SNB-75 CNS = test system: SNB-75 CNS
HL-60(TB) leukemia = test system: HL-60(TB) leukemia
KM12 colon = test system: KM12 colon
SK-MEL-28 melanoma = test system: SK-MEL-28 melanoma
ACHN renal = test system: ACHN renal
HCT-15 colon = test system: HCT-15 colon
CAKI-1 renal = test system: CAKI-1 renal
SF-268 CNS = test system: SF-268 CNS
TK-10 renal = test system: TK-10 renal
LOX IMVI melanoma = test system: LOX IMVI melanoma
UO-31 renal = test system: UO-31 renal
A549 NSCLC = test system: A549 NSCLC
MDA-MB-435 = test system: MDA-MB-435
UACC-257 melanoma = test system: UACC-257 melanoma
SNB-19 CNS = test system: SNB-19 CNS
T-47D breast = test system: T-47D breast
COLO 205 colon = test system: COLO 205 colon
HCC-2998 colon = test system: HCC-2998 colon
UACC-62 melanoma = test system: UACC-62 melanoma
OVCAR-4 ovarian = test system: OVCAR-4 ovarian
MALME-3M melanoma = test system: MALME-3M melanoma
HOP-62 NSCLC = test system: HOP-62 NSCLC
OVCAR-5 ovarian = test system: OVCAR-5 ovarian
HS 578T breast = test system: HS 578T breast
A498 renal = test system: A498 renal
SF-295 CNS = test system: SF-295 CNS
U251 CNS = test system: U251 CNS
OVCAR-3 ovarian = test system: OVCAR-3 ovarian
NCI/ADR-RES ovarian = test system: NCI/ADR-RES ovarian
SK-MEL-2 melanoma = test system: SK-MEL-2 melanoma
OVCAR-8 ovarian = test system: OVCAR-8 ovarian
NCI-H522 lung = test system: NCI-H522 lung
NCI-H460 lung = test system: NCI-H460 lung
SW-620 colon = test system: SW-620 colon
DU-145 prostate = test system: DU-145 prostate

C/C(=N/O)c1ccc(NC(=O)CSc2nnc(-c3ccc4nc(-c5ccc(Cl)cc5)[nH]c4c3)o2)cc1
GI50 (SK-OV-3 ovarian): 20.4 µM | TGI (SK-OV-3 ovarian): 39.4 µM | GI50 (MCF7 breast): 6.65 µM | TGI (MCF7 breast): 26 µM | GI50 (SF-539 CNS): 10.2 µM | TGI (SF-539 CNS): 22.1 µM | GI50 (PC-3 prostate): 3.6 µM | TGI (PC-3 prostate): 16.3 µM | GI50 (NCI-H226 lung): 13.5 µM | TGI (NCI-H226 lung): 32.8 µM | GI50 (NCI-H23 lung): 3.43 µM | TGI (NCI-H23 lung): 16.7 µM | GI50 (BT-549 breast): 4.36 µM | TGI (BT-549 breast): 20.5 µM | GI50 (HT29 colon): 9.34 µM | TGI (HT29 colon): 29.8 µM | GI50 (HCT-116 colon): 4.78 µM | TGI (HCT-116 colon): 37.7 µM | GI50 (CCRF-CEM leukemia): 3.05 µM | TGI (CCRF-CEM leukemia): > 100 µM | GI50 (M14 melanoma): 3.38 µM | TGI (M14 melanoma): 15 µM | GI50 (RXF 393 renal): 2.38 µM | TGI (RXF 393 renal): 8.16 µM | GI50 (IGROV1 ovarian): 16.2 µM | TGI (IGROV1 ovarian): 30.5 µM | GI50 (MOLT-4 leukemia): 3.66 µM | TGI (MOLT-4 leukemia): > 100 µM | GI50 (786-0 renal): 3.36 µM | TGI (786-0 renal): 11.8 µM | GI50 (SK-MEL-5 melanoma): 5.47 µM | TGI (SK-MEL-5 melanoma): 18.2 µM | GI50 (RPMI-8226 leukemia): 13.6 µM | TGI (RPMI-8226 leukemia): 71.5 µM | GI50 (MDA-MB-468 breast): 18.5 µM | TGI (MDA-MB-468 breast): 33.7 µM | GI50 (HOP-92 NSCLC): 3.12 µM | TGI (HOP-92 NSCLC): 9.48 µM | GI50 (SN12C renal): 4.04 µM | TGI (SN12C renal): 15.5 µM | GI50 (K-562 leukemia): 3.39 µM | TGI (K-562 leukemia): > 100 µM | GI50 (EKVX NSCLC): 18 µM | TGI (EKVX NSCLC): 45.1 µM | GI50 (MDA-MB-231 breast): 2.22 µM | TGI (MDA-MB-231 breast): 5.35 µM | GI50 (SNB-75 CNS): 5.87 µM | TGI (SNB-75 CNS): 22.8 µM | GI50 (HL-60(TB) leukemia): 13.8 µM | TGI (HL-60(TB) leukemia): > 100 µM | GI50 (KM12 colon): 16.7 µM | TGI (KM12 colon): 43 µM | GI50 (SK-MEL-28 melanoma): 2.23 µM | TGI (SK-MEL-28 melanoma): 5.14 µM | GI50 (ACHN renal): 15.8 µM | TGI (ACHN renal): 35 µM | GI50 (HCT-15 colon): 56.9 µM | TGI (HCT-15 colon): > 100 µM | GI50 (CAKI-1 renal): 12.3 µM | TGI (CAKI-1 renal): 28.5 µM | GI50 (SF-268 CNS): 12.7 µM | TGI (SF-268 CNS): 30.5 µM | GI50 (TK-10 renal): 28.4 µM | TGI (TK-10 renal): 56.4 µM | GI50 (LOX IMVI melanoma): 1.94 µM | TGI (LOX IMVI melanoma): 4.05 µM | GI50 (UO-31 renal): 24.8 µM | TGI (UO-31 renal): > 100 µM | GI50 (A549 NSCLC): 8.19 µM | TGI (A549 NSCLC): 28.1 µM | GI50 (MDA-MB-435): 3.79 µM | TGI (MDA-MB-435): 15 µM | GI50 (UACC-257 melanoma): 12.9 µM | TGI (UACC-257 melanoma): 29.8 µM | GI50 (SNB-19 CNS): 12 µM | TGI (SNB-19 CNS): 25.7 µM | GI50 (T-47D breast): 17.3 µM | TGI (T-47D breast): 41.9 µM | GI50 (COLO 205 colon): 22.3 µM | TGI (COLO 205 colon): 66.1 µM | GI50 (HCC-2998 colon): 43.2 µM | TGI (HCC-2998 colon): > 100 µM | GI50 (UACC-62 melanoma): 3.09 µM | TGI (UACC-62 melanoma): 11.1 µM | GI50 (OVCAR-4 ovarian): 18.7 µM | TGI (OVCAR-4 ovarian): 42 µM | GI50 (MALME-3M melanoma): 1.93 µM | TGI (MALME-3M melanoma): 4.86 µM | GI50 (HOP-62 NSCLC): 2.57 µM | TGI (HOP-62 NSCLC): 8.69 µM | GI50 (OVCAR-5 ovarian): 17.8 µM | TGI (OVCAR-5 ovarian): 36.1 µM | GI50 (HS 578T breast): 3.63 µM | TGI (HS 578T breast): 28.6 µM | GI50 (A498 renal): 21.3 µM | TGI (A498 renal): 37.1 µM | GI50 (SF-295 CNS): 12.9 µM | TGI (SF-295 CNS): 28.9 µM | GI50 (U251 CNS): 3.03 µM | TGI (U251 CNS): 8.87 µM | GI50 (OVCAR-3 ovarian): 18.8 µM | TGI (OVCAR-3 ovarian): 38 µM | GI50 (NCI/ADR-RES ovarian): > 100 µM | TGI (NCI/ADR-RES ovarian): > 100 µM | GI50 (SK-MEL-2 melanoma): 13.2 µM | TGI (SK-MEL-2 melanoma): 27.8 µM | GI50 (OVCAR-8 ovarian): 3.29 µM | TGI (OVCAR-8 ovarian): 15.1 µM | GI50 (NCI-H522 lung): 3.48 µM | TGI (NCI-H522 lung): 17.2 µM | GI50 (NCI-H460 lung): 12.7 µM | TGI (NCI-H460 lung): 32.4 µM | GI50 (SW-620 colon): 22 µM | TGI (SW-620 colon): 59.5 µM | GI50 (DU-145 prostate): 17.7 µM | TGI (DU-145 prostate): 33.3 µM
